Measurements: PubChem BioAssay AID248 (DTP/NCI, 2004)
Where “and” joins values, the source holds several entries; their conditions need not be identical. Equal entries are not always repeated. Toxic doses and inconclusive results are not listed.

System: L1210 leukemia ip in BDF1 mice, survival T/C
Assay: NCI In Vivo Anticancer Drug Screen. Data for tumor model L1210 Leukemia (intraperitoneal) in B6D2F1 (BDF1) mice
Details: endpoint: mean survival time, higher = longer survival
Outline: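 Tumor cells were implanted, animals were treated, and survival was followed. The result divides the treated measurement by the vehicle-control measurement.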

[1] = dose: 100.0 mg/kg/injection, schedule: Q01DX001 (ip), vehicle: saline with Tween-80
[2] = dose: 200.0 mg/kg/injection, schedule: Q01DX001 (ip), vehicle: saline with Tween-80
[3] = dose: 100.0 mg/kg/injection, schedule: Q04DX003 (ip), vehicle: Klucel (hydroxypropylcellulose) (HPC)
[4] = dose: 200.0 mg/kg/injection, schedule: Q04DX003 (ip), vehicle: Klucel (hydroxypropylcellulose) (HPC)
[5] = dose: 400.0 mg/kg/injection, schedule: Q04DX003 (ip), vehicle: Klucel (hydroxypropylcellulose) (HPC)
[6] = dose: 100.0 mg/kg/injection, schedule: Q01DX001 (ip), vehicle: Klucel (hydroxypropylcellulose) (HPC)
[7] = dose: 100.0 mg/kg/injection, schedule: Q01DX001 (ip), vehicle: saline
[8] = dose: 200.0 mg/kg/injection, schedule: Q01DX001 (ip), vehicle: Klucel (hydroxypropylcellulose) (HPC)
[9] = dose: 200.0 mg/kg/injection, schedule: Q01DX001 (ip), vehicle: saline
[10] = dose: 300.0 mg/kg/injection, schedule: Q04DX003 (ip), vehicle: saline
[11] = dose: 400.0 mg/kg/injection, schedule: Q01DX001 (ip), vehicle: Klucel (hydroxypropylcellulose) (HPC)
[12] = dose: 400.0 mg/kg/injection, schedule: Q01DX001 (ip), vehicle: saline
[13] = dose: 400.0 mg/kg/injection, schedule: Q04DX003 (ip), vehicle: saline with Tween-80
[14] = dose: 100.0 mg/kg/injection, schedule: Q04DX002 (ip), vehicle: Klucel (hydroxypropylcellulose) (HPC)
[15] = dose: 200.0 mg/kg/injection, schedule: Q04DX002 (ip), vehicle: Klucel (hydroxypropylcellulose) (HPC)

With `O=C1N(c2cc([N+](=O)[O-])ccc2F)C(=O)C(F)(F)C1(F)F` the T/C [1] was 102 % of control and the T/C [2] was 97 % of control.

`CC(C)(C)OC(=O)NC(CC(=O)OCc1ccccc1)C(=O)O` (stereo unspecified) was tested, and the T/C (dose: 100.0 mg/kg/injection, schedule: Q01DX009 (ip), vehicle: Klucel (hydroxypropylcellulose) (HPC)) was 87 % of control, the T/C [3] was 93 % of control and the T/C [4] was 95 % of control. The T/C [5] was 106 % of control.

In the case of `CCS(=O)(=O)/C=C/c1ccco1`, the T/C (dose: 12.5 mg/kg/injection, schedule: Q04DX003 (ip), vehicle: carboxymethylcellulose (CMC)) is reported as 98 % of control and the T/C (dose: 25.0 mg/kg/injection, schedule: Q04DX003 (ip), vehicle: carboxymethylcellulose (CMC)) is reported as 95 % of control.

With `CC(C(=O)O)C(N)C(=O)O` (stereo unspecified) the T/C (dose: 75.0 mg/kg/injection, schedule: Q04DX003 (ip), vehicle: saline) was 102 % of control, the T/C [6] was 88 % of control and the T/C [7] was 98 % of control. For the same compound, the T/C (dose: 150.0 mg/kg/injection, schedule: Q04DX003 (ip), vehicle: saline) was 102 % of control, the T/C [8] was 97 % of control and the T/C [9] was 96 % of control. For the same compound, the T/C [10] was 102 % of control, the T/C [11] was 92 % of control and the T/C [12] was 95 % of control.

In the case of `CCCCCCCCCCCC(=O)NC(=S)Nc1ccc([N+](=O)[O-])cc1C`, the T/C [3] is reported as 88 % of control, the T/C [4] is reported as 86 % of control and the T/C [5] is reported as 90 % of control.

For `NC(=O)c1c(/N=C/c2cc(Cl)cc(Cl)c2O)sc2c1CCCC2`, the T/C (dose: 100.0 mg/kg/injection, schedule: Q04DX002 (ip), vehicle: saline with Tween-80) was 96 % of control, the T/C (dose: 200.0 mg/kg/injection, schedule: Q04DX002 (ip), vehicle: saline with Tween-80) was 93 % of control and the T/C (dose: 400.0 mg/kg/injection, schedule: Q04DX002 (ip), vehicle: saline with Tween-80) was 96 % of control.

In the case of `C=CC[n+]1ccc2ccccc2c1`, the T/C (dose: 25.0 mg/kg/injection, schedule: Q01DX009 (ip), vehicle: saline) is reported as 108 % of control, the T/C (dose: 50.0 mg/kg/injection, schedule: Q01DX009 (ip), vehicle: saline) is reported as 102 % of control and the T/C (dose: 100.0 mg/kg/injection, schedule: Q01DX009 (ip), vehicle: saline) is reported as 105 % of control.

In the case of `COc1ccc(/C=N\NC(=O)CCCC(=O)N/N=C/c2ccc(OC)cc2)cc1`, the T/C (dose: 50.0 mg/kg/injection, schedule: Q01DX001 (ip), vehicle: other) is reported as 93 % of control, the T/C (dose: 100.0 mg/kg/injection, schedule: Q01DX001 (ip), vehicle: other) is reported as 88 % of control and the T/C (dose: 200.0 mg/kg/injection, schedule: Q01DX001 (ip), vehicle: other) is reported as 90 % of control.

In the case of `c1ccc2c(B(c3cccc4ccccc34)c3cccc4ccccc34)cccc2c1`, the T/C [3] is reported as 94 % of control, the T/C [4] is reported as 97 % of control and the T/C [5] is reported as 102 % of control.

`CC(C)CC(C)c1c(N)nc(N)[nH]c1=O` (stereo unspecified) was tested, and the T/C [6] was 97 % of control, the T/C [8] was 103 % of control and the T/C [11] was 109 % of control.

`O=P1(Nc2ccccc2)OCCCN1Cc1ccc(Cl)c(Cl)c1` (stereo unspecified) was tested, and the T/C (dose: 50.0 mg/kg/injection, schedule: Q01DX001 (ip), vehicle: saline) was 96 % of control, the T/C [7] was 102 % of control and the T/C [9] was 90 % of control. The T/C [12] was 102 % of control.

In the case of `O=C(O)Cc1ccc(C2CCCCC2)cc1`, the T/C (dose: 37.5 mg/kg/injection, schedule: Q01DX Z (ip), vehicle: carboxymethylcellulose (CMC)) is reported as 98 % of control, the T/C (dose: 75.0 mg/kg/injection, schedule: Q01DX Z (ip), vehicle: carboxymethylcellulose (CMC)) is reported as 95 % of control and the T/C (dose: 150.0 mg/kg/injection, schedule: Q01DX Z (ip), vehicle: carboxymethylcellulose (CMC)) is reported as 102 % of control. The T/C (dose: 300.0 mg/kg/injection, schedule: Q01DX Z (ip), vehicle: carboxymethylcellulose (CMC)) was 102 % of control.

With `CCOC(=O)CSC` the T/C (dose: 100.0 mg/kg/injection, schedule: Q01DX009 (ip), vehicle: saline with Tween-80) was 99 % of control, the T/C (dose: 100.0 mg/kg/injection, schedule: Q04DX003 (ip), vehicle: saline with Tween-80) was 101 % of control and the T/C (dose: 200.0 mg/kg/injection, schedule: Q01DX009 (ip), vehicle: saline with Tween-80) was 94 % of control. The T/C (dose: 200.0 mg/kg/injection, schedule: Q04DX003 (ip), vehicle: saline with Tween-80) was 106 % of control, the T/C (dose: 400.0 mg/kg/injection, schedule: Q01DX009 (ip), vehicle: saline with Tween-80) was 100 % of control and the T/C [13] was 98 % of control.

For `O=S(=O)(Nc1ccccc1)c1ccc2c(Cl)cc(S(=O)(=O)Nc3ccccc3)cc2c1`, the T/C [1] was 93 % of control, the T/C [2] was 93 % of control and the T/C (dose: 400.0 mg/kg/injection, schedule: Q01DX001 (ip), vehicle: saline with Tween-80) was 91 % of control.

In the case of `CCOC(=O)c1ccc(N=Cc2cccc([N+](=O)[O-])c2)cc1`, the T/C [3] is reported as 89 % of control, the T/C [4] is reported as 88 % of control and the T/C [5] is reported as 96 % of control.

With `CCCCc1ccc2nc(NC(=O)OC)[nH]c2c1` the T/C (dose: 50.0 mg/kg/injection, schedule: Q01DX009 (oral), vehicle: saline with Tween-80) was 99 % of control, the T/C (dose: 100.0 mg/kg/injection, schedule: Q01DX009 (oral), vehicle: saline with Tween-80) was 109 % of control and the T/C (dose: 100.0 mg/kg/injection, schedule: Q04DX003 (oral), vehicle: saline with Tween-80) was 105 % of control. For the same compound, the T/C (dose: 200.0 mg/kg/injection, schedule: Q01DX009 (oral), vehicle: saline with Tween-80) was 108 % of control, the T/C (dose: 200.0 mg/kg/injection, schedule: Q04DX003 (ip), vehicle: saline) was 172 % of control and the T/C (dose: 200.0 mg/kg/injection, schedule: Q04DX003 (oral), vehicle: saline with Tween-80) was 105 % of control. The T/C [10] was 160 % of control, the T/C [13] was 107 % of control and the T/C (dose: 400.0 mg/kg/injection, schedule: Q04DX003 (oral), vehicle: saline with Tween-80) was 114 % of control.

`CCC12C=CCN3CCC4(c5cc(C(c6ccc(OC)cc6)c6cc7ccccc7n6S(=O)(=O)c6ccccc6)c(OC)cc5N(C)C4C(O)(C(=O)OC)C1OC(C)=O)C32` (stereo unspecified) was tested, and the T/C (dose: 50.0 mg/kg/injection, schedule: Q04DX002 (ip), vehicle: Klucel (hydroxypropylcellulose) (HPC)) was 98 % of control, the T/C [14] was 98 % of control and the T/C [15] was 102 % of control.

With `O=C1CC(c2c[nH]c3nccnc23)NN1` (stereo unspecified) the T/C (dose: 6.25 mg/kg/injection, schedule: Q01DX009 (ip), vehicle: water) was 100 % of control, the T/C (dose: 12.5 mg/kg/injection, schedule: Q01DX009 (ip), vehicle: water) was 100 % of control and the T/C (dose: 25.0 mg/kg/injection, schedule: Q01DX009 (ip), vehicle: water) was 99 % of control. The T/C (dose: 50.0 mg/kg/injection, schedule: Q01DX009 (ip), vehicle: water) was 105 % of control, the T/C (dose: 100.0 mg/kg/injection, schedule: Q01DX009 (ip), vehicle: water) was 94 % of control and the T/C (dose: 200.0 mg/kg/injection, schedule: Q01DX009 (ip), vehicle: water) was 89 % of control.

In the case of `CSc1ccc(NC(N)=O)cc1`, the T/C [14] is reported as 103 % of control, the T/C [15] is reported as 120 % of control and the T/C (dose: 400.0 mg/kg/injection, schedule: Q04DX002 (ip), vehicle: Klucel (hydroxypropylcellulose) (HPC)) is reported as 95 % of control.

In the case of `Cc1ccc(-n2c(O)c(N=Nc3ccc(Cl)cc3)c(=O)n(-c3ccc(Br)cc3)c2=S)cc1`, the T/C (dose: 50.0 mg/kg/injection, schedule: Q01DX001 (ip), vehicle: Klucel (hydroxypropylcellulose) (HPC)) is reported as 103 % of control, the T/C [6] is reported as 105 % of control and the T/C [8] is reported as 108 % of control.

With `COc1cc(C)c2c(c1OC)C(=O)CC2` the T/C [7] was 94 % of control, the T/C [9] was 105 % of control and the T/C [12] was 88 % of control.

In the case of `COC1OC(COC(C)=O)C(OC(C)=O)C(OC(C)=O)[CH]1[Hg][S]c1ccccc1` (stereo unspecified), the T/C (dose: 1.0 mg/kg/injection, schedule: Q01DX015 (ip), vehicle: carboxymethylcellulose (CMC)) is reported as 105 % of control, the T/C (dose: 2.0 mg/kg/injection, schedule: Q01DX015 (ip), vehicle: carboxymethylcellulose (CMC)) is reported as 98 % of control and the T/C (dose: 4.0 mg/kg/injection, schedule: Q01DX015 (ip), vehicle: carboxymethylcellulose (CMC)) is reported as 100 % of control. The T/C (dose: 8.0 mg/kg/injection, schedule: Q01DX015 (ip), vehicle: carboxymethylcellulose (CMC)) was 94 % of control and 86 % of control and the T/C (dose: 16.0 mg/kg/injection, schedule: Q01DX015 (ip), vehicle: carboxymethylcellulose (CMC)) was 109 % of control.

`CCCNc1nc(N)[nH]c(=O)c1NC=O` was tested, and the T/C (dose: 55.0 mg/kg/injection, schedule: Q01DX Z (ip), vehicle: methylcellulose (MC)) was 105 % of control, the T/C (dose: 83.0 mg/kg/injection, schedule: Q01DX Z (ip), vehicle: methylcellulose (MC)) was 109 % of control and the T/C (dose: 125.0 mg/kg/injection, schedule: Q01DX Z (ip), vehicle: methylcellulose (MC)) was 109 % of control. For the same compound, the T/C (dose: 180.0 mg/kg/injection, schedule: Q01DX Z (ip), vehicle: methylcellulose (MC)) was 97 % of control.
